Measured values reported in US20240238304A1, “Small Molecule Degraders of DOT1L and Uses Thereof” (Northwestern University, priority 2022, published 2024).

molecular target: T1, DOT1L (Homo sapiens, UniProt Q8TEK3); assay: Screening of PROTAC degraders of DOT1L: western blotting of nuclear extract; assay type: cell-based; details: 1 μM, 48 h (2 days) treatment, LNCaP cell line, Lamin B loading control
T1 construct: nuclear protein was extracted using NE-PER Nuclear and Cytoplasmic Extraction Reagents; endogenous in cells; host or cells: LNCaP
Method: LNCaP cells were cultured in complete RPMI1640 media. 70-80% confluent of cells were treated with 1 μM PROTAC degraders of DOT1L (Group A-D), 1 μM parent compound 534, 1 μM EPZ5676, and DMSO (Vehicle) for 48 h. Then, nuclear protein was extracted using NE-PER Nuclear and Cytoplasmic Extraction Reagents (Thermo Scientific 78833) followed by western blotting. Protein band intensity was measured by Image J.
(§1) Nuclear protein extracts were separated by Bolt™ 4-12% Bis-Tris Plus Gels (Invitrogen) and transferred to PVDF membranes by wet transfer. The membranes were blocked with 5% Blotting-Grade Blocker (Bio-Rad) in Tris-buffered saline with 0.5% Tween 20 (TBST) for 1 h at room temperature, and then incubated overnight at 4° C. in blocking buffer with primary antibody including rabbit DOT1L (D1W4Z) mAb1:3000 (CellSignalingTechnology, Cat #77087) and goat lamin B(C-20) pAb 1:1000 (Santa Cruz Biotechnology, Cat #sc-6216). After incubation with HRP-conjugated goat anti-rabbit secondary antibody 1:10,000 (Bio-Rad, Cat #170-6515) or HRP-conjugated donkey anti-goat secondary antibody 1:3000 (Santa Cruz Biotechnology, Cat #sc-2020) for 1 h, the membranes were detected using Super Signal West Femto (Thermo Fisher Scientific, Cat #34096).

T1 sequence (Q8TEK3 whole entry): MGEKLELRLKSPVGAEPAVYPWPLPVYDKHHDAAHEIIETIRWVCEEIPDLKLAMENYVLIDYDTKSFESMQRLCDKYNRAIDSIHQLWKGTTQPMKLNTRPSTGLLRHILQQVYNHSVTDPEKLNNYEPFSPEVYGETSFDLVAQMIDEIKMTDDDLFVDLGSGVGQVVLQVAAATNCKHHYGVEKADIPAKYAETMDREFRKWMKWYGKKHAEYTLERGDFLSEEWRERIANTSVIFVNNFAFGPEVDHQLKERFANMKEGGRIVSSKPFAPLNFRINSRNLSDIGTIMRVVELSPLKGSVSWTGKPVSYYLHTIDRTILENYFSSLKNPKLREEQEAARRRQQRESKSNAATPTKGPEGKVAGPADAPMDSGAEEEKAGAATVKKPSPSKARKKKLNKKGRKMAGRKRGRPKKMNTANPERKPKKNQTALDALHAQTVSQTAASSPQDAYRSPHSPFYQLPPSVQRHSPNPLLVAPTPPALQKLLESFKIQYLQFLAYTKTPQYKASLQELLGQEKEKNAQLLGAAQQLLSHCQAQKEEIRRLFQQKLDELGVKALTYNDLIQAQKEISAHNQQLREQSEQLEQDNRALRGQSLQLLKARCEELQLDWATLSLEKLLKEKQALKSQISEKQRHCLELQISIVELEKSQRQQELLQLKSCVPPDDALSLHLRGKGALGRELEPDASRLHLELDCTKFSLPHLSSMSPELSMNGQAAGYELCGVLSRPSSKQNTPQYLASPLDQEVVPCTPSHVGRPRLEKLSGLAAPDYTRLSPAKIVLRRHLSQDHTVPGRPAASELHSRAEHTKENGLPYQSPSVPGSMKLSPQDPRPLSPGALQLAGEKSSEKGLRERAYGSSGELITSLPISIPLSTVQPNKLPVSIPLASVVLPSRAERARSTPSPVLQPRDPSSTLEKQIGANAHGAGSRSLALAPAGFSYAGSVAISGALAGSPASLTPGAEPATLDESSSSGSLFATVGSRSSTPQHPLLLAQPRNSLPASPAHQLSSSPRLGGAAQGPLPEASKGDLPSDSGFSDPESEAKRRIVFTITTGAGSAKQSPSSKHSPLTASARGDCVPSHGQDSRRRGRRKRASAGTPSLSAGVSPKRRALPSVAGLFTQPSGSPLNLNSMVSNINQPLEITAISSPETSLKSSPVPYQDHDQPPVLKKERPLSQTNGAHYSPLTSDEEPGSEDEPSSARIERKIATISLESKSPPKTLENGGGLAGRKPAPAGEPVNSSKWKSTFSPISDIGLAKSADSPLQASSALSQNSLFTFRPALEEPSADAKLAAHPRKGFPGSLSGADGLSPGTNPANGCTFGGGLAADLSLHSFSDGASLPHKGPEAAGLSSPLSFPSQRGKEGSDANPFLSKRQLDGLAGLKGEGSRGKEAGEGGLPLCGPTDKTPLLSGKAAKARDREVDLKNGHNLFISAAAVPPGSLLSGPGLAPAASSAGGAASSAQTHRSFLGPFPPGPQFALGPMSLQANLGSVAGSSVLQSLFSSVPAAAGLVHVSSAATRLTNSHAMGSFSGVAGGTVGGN

DOT1L degradation (western blot, nuclear extraction) | Compound
didn't degrade DOT1L protein | CC(C)N(C[C@H]1O[C@@H](n2cnc3c(N)ncnc32)[C@H](O)[C@@H]1O)[C@H]1C[C@@H](CCc2nc3cc(C(C)(C)C)ccc3[nH]2)C1 [EPZ5676, reference compound]
accelerated the most DOT1L degradation | COc1nc(Nc2cc(S(C)(=O)=O)ccc2N[C@@H](c2cccc3c2OC(F)(F)O3)c2ncccc2Cl)nc(N2CCN(CCOCCNC(=O)COc3cccc4c3C(=O)N(C3CCC(=O)NC3=O)C4=O)CC2)n1 (stereo partly drawn) [Compound 588]
didn't degrade DOT1L protein | COc1nc(Nc2cc(S(C)(=O)=O)ccc2N[C@@H](c2cccc3c2OC(F)(F)O3)c2ncccc2Cl)nc(N2CCNCC2)n1 [Compound 534]

molecular target: T1, DOT1L; assay: Time-course analysis of DOT1L degradation: western blotting of nuclear extract; assay type: cell-based; details: 1 μM, multiple time points 1 h to 72 h, LNCaP cell line, nuclear extraction
Method: LNCaP cells were culturedincompleteRPMIl640 media. 70-80% confluent of cells were treated with 1 μM 705 (Group D), 1 μM 588 (Group A), 1 μM 593 (Group C), 1uM 534 (parent), 1 μM EPZ5676, and DMSO for 1 h, 2 h, 6 h, 24 h, 48 h, and 72 h. Then, nuclear protein was extracted using NE-PER Nuclear and Cytoplasmic Extraction Reagents (Thermo Scientific 78833) followed by western blotting. Protein band intensity was measured by Image J.
as §1

DOT1L degradation over time (order of degradation) | Compound
didn't degrade DOT1L until 72 h | CC(C)N(C[C@H]1O[C@@H](n2cnc3c(N)ncnc32)[C@H](O)[C@@H]1O)[C@H]1C[C@@H](CCc2nc3cc(C(C)(C)C)ccc3[nH]2)C1 [EPZ5676, reference compound]
degraded DOT1L protein in this order | COc1nc(Nc2cc(S(C)(=O)=O)ccc2N[C@@H](c2cccc3c2OC(F)(F)O3)c2ncccc2Cl)nc(N2CCN(CCOCCNC(=O)COc3cccc4c3C(=O)N(C3CCC(=O)NC3=O)C4=O)CC2)n1 (stereo partly drawn) [Compound 588]
didn't degrade DOT1L until 72 h | COc1nc(Nc2cc(S(C)(=O)=O)ccc2N[C@@H](c2cccc3c2OC(F)(F)O3)c2ncccc2Cl)nc(N2CCNCC2)n1 [Compound 534]
